The target of one assay is TEAD2 (Homo sapiens, UniProt Q15562). As to the kind of experiment: biochemical.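 Also: TR-FRET competition assay with His-tagged TEAD protein and a biotinylated lipid pocket probe, where probe displacement by compound lowers the signal.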
In a further assay the target is TEAD1 (Homo sapiens, UniProt P28347). As to the kind of experiment: TR-FRET (Lipid HTRF) TEAD lipid pocket probe displacement assay, TEAD1. Format: binding. Conditions: His-tagged TEAD1, biotinylated lipid pocket probe, 4 hours. For orientation: In TR-FRET formats the signal depends on donor and acceptor labels being close together.
The next assay has as its target TEAD4 (Homo sapiens, UniProt Q15561). As to the kind of experiment: TR-FRET (Lipid HTRF) TEAD lipid pocket probe displacement assay, TEAD4. Format: binding. Particulars: His-tagged TEAD4, biotinylated lipid pocket probe, 4 hours.
A further assay deals with TEAD3 (Homo sapiens, UniProt Q99594). As to the kind of experiment: TR-FRET (Lipid HTRF) TEAD lipid pocket probe displacement assay, TEAD3. Format: binding. Particulars: His-tagged TEAD3, biotinylated lipid pocket probe, 4 hours.
Sequence of TEAD3 (Q99594 whole entry, species assumed): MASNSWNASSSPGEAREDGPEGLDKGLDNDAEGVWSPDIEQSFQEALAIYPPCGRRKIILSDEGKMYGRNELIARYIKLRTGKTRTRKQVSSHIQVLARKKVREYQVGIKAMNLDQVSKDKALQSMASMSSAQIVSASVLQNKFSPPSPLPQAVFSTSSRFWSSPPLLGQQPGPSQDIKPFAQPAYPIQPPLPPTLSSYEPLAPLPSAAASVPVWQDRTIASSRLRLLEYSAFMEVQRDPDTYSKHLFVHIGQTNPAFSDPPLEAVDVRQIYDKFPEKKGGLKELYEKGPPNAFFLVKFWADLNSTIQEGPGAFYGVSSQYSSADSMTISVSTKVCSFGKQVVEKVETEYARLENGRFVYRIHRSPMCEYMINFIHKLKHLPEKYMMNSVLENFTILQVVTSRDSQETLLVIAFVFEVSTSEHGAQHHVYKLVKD

Sequence of TEAD4 (Q15561 whole entry, species assumed): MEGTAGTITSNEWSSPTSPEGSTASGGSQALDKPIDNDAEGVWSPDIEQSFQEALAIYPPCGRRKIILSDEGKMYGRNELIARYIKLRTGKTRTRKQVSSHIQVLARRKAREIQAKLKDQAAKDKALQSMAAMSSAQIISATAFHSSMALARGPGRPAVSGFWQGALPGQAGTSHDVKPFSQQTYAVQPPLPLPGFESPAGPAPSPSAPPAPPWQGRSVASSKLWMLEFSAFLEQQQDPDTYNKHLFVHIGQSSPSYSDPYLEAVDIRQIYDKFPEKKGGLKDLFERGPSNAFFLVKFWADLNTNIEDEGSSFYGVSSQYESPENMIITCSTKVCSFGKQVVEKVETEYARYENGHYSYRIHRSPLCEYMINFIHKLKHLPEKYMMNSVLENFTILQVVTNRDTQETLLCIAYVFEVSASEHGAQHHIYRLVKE
Sequence of TEAD2 (Q15562 whole entry, species assumed): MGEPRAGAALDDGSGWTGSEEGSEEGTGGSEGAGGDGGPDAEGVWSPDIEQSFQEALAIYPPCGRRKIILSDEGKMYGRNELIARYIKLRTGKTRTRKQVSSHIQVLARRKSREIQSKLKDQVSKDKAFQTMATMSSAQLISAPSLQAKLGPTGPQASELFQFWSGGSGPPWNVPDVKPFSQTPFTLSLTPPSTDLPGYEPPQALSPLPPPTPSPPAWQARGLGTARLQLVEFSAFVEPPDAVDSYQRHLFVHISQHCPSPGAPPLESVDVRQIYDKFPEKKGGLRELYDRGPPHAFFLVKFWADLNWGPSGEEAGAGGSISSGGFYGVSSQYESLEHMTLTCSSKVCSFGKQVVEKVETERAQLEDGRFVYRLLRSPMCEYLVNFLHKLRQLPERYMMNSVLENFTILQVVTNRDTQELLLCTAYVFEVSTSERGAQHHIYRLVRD
Sequence of TEAD1 (P28347 whole entry, species assumed): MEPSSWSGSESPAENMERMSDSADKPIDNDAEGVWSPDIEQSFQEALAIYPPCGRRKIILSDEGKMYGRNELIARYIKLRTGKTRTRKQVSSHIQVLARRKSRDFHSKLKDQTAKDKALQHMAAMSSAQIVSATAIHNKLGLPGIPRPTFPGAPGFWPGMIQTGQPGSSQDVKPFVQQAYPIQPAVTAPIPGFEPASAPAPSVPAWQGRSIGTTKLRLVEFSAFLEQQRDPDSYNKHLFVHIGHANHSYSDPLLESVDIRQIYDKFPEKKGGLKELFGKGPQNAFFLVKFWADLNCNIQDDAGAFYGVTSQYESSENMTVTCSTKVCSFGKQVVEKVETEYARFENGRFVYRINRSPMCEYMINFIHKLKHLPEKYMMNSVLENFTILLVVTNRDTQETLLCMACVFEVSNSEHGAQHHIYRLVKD
Protocol for TEAD4: His-tagged TEAD proteins are pre-incubated with TEAD project compounds for 30 minutes or 4 hours at room temperature. Biotinylated lipid pocket probes are then added to the TEAD/Compound mixture and incubated for 60 minutes at room temperature. The lipid pocket probe competes with the test compound for the TEAD lipid pocket until equilibrium is reached. After 60 minutes, Europium labelled anti-His (Perkin Elmer #AD0110) and XL665 labelled streptavidin (CIS Bio 610SAXAC) are added to the TEAD/test compound/lipid pocket mixture and incubated for 30 minutes or 4 hours. TR-FRET values are then measured using an EnVision multi-label plate reader (Perkin Elmer Cat #2104-001 0A.) If the lipid pocket probe binds to TEAD as expected, a TR-FRET signal results from the proximity of anti-His Eu and XL665. If a TEAD lipid pocket binder such as binds and displaces the lipid pocket probe, the disruption of the TEAD:probe interaction results in a decrease in TR-FRET signal. The potency of compounds as TEAD lipid pocket binders is determined by IC50 value generated using a non-linear 4 parameter curve fit.

In general, IC50 refers to the concentration that gives 50% inhibition. Lower therefore signals higher potency. As to `C=CC(=O)NCc1cc(Oc2ccc(C(F)(F)F)cc2)c2ncccc2c1[C@@H](O)CO` (single isomer, unassigned) [Compound 148], the IC50 stood at 8.7 nM on TEAD2, 36 nM at TEAD1, 540 nM on TEAD4 and 470 nM at TEAD3.

Take `C=CC(=O)NCc1cc(-c2ccc(OC(F)(F)F)cc2)c2ncoc2c1CO` [Compound 113, N-((7-(Hydroxymethyl)-4-(4-(trifluoromethoxy)phenyl)benzo[d]oxazol-6-yl)methyl)acrylamide]: the IC50 was found to be 24 nM against TEAD2, 24 nM on TEAD1, 31 nM at TEAD4 and 44 nM on TEAD3.

In the case of `C=CC(=O)N(C)CCc1cc(-c2ccc(OC(F)(F)F)cc2)c2ncn(C)c2c1C#N` [Compound 144, N-(2-(7-Cyano-1-methyl-4-(4-(trifluoromethoxy)phenyl)-1H-benzo[d]imidazol-6-yl)ethyl)-N-methylacrylamide], the IC50 against TEAD2 is 39 nM; on TEAD1 it was 94 nM; on TEAD4, 23 nM; at TEAD3 it was 1300 nM.

Turning to `C=CC(=O)NCc1cc(-c2ccc(OC(F)(F)F)cc2)c2ncn(C)c2c1NCCO` [Compound 140, N-((7-((2-Hydroxyethyl)amino)-1-methyl-4-(4-(trifluoromethoxy)phenyl)-1H-benzo[d]imidazol-6-yl)methyl)acrylamide], the IC50 at TEAD2 worked out at 47 nM; at TEAD1, 27 nM; at TEAD4, 43 nM; at TEAD3, 3000 nM.

`C=CC(=O)NCc1cc(-c2ccc(OC(F)(F)F)cc2)c2ncoc2c1[C@H](O)CO` (single isomer, unassigned) [Compound 105]: the concentration for half-maximal inhibition (IC50) against TEAD2 amounted to 30 nM; on TEAD1 it was 130 nM; on TEAD4, 90 nM; at TEAD3, 74 nM.

`C=CC(=O)NCc1cc(-c2ccc(OC(F)(F)F)cc2)c2ncccc2c1[C@@H](O)CO` (single isomer, unassigned) [Compound 48]: the concentration for half-maximal inhibition (IC50) stood at 14.5 nM at TEAD2, 22 nM at TEAD1, 145 nM at TEAD4 and 1040 nM on TEAD3.

Take `C=CC(=O)N(C)Cc1cc(-c2ccc(OC(F)(F)F)cc2)c2ncccc2c1[C@H](O)CO` (single isomer, unassigned) [Compound 51]: the IC50 is 12 nM at TEAD2, 19 nM at TEAD1, 20 nM at TEAD4 and 110 nM at TEAD3.

With `C=CC(=O)NCc1cc(-c2ccc(S(F)(F)(F)(F)F)cc2)c2c(c1[C@@H](O)CO)CCO2` (stereo in doubt) [Compound 97, N-[[7-[4-(pentafluoro-6-sulfanyl)phenyl]-4-[rac-(1S)-1,2-dihydroxyethyl]-2,3-dihydrobenzofuran-5-yl]methyl]prop-2-enamide], the half-maximal inhibitory concentration (IC50) is 19 nM at TEAD2, 27 nM at TEAD1, 18 nM at TEAD4 and 590 nM on TEAD3.

On to `C=CC(=O)NCc1cc(-c2ccc(OC(F)(F)F)cc2)c2nccnc2c1C#N` [Compound 85, N-((5-Cyano-8-(4-(trifluoromethoxy)phenyl)quinoxalin-6-yl)methyl)acrylamide], for which the IC50 on TEAD2 was found to be 121 nM; on TEAD1 it was 78 nM; at TEAD4 it was 88.7 nM; at TEAD3, 127 nM.

As for `C=CC(=O)NCc1cc(-c2ccc(OC(F)(F)F)cc2)c2ncccc2c1CO` [Compound 50, N-[[5-(hydroxymethyl)-8-[4-(trifluoromethoxy)phenyl]-6-quinolyl]methyl]prop-2-enamide], the IC50 at TEAD2 came to 11 nM; at TEAD1, 12 nM; at TEAD4, 34 nM; at TEAD3 it was 37 nM.

With `C=CC(=O)N(C)Cc1cc(-c2ccc(OC(F)(F)F)cc2)c2c(c1CO)CCO2` [Compound 88, N-((4-(Hydroxymethyl)-7-(4-(trifluoromethoxy)phenyl)-2,3-dihydrobenzofuran-5-yl)methyl)-N-methylacrylamide], the IC50 is 6.7 nM at TEAD2, 4.4 nM on TEAD1, 3.1 nM at TEAD4 and 7.4 nM on TEAD3.

Turning to `C=CC(=O)NCc1cc(-c2ccc(OC(F)(F)F)cc2)c2c(c1-n1ccnc1)CCO2` [Compound 23, N-((4-(1H-Imidazol-1-yl)-7-(4-(trifluoromethoxy)phenyl)-2,3-dihydrobenzofuran-5-yl)methyl)acrylamide], the IC50 at TEAD2 is 370 nM; on TEAD1, 690 nM; at TEAD4, 160 nM; at TEAD3, 3900 nM.

Turning to `C=CC(=O)NCc1cc(-c2ccc(OC(F)(F)F)cc2)c2nccn2c1CC` [Compound 26, N-((5-ethyl-8-(4-(trifluoromethoxy)phenyl)imidazo[1,2-a]pyridin-6-yl)methyl)acrylamide], the IC50 came out at 62 nM on TEAD2, 140 nM at TEAD1, 180 nM on TEAD4 and 510 nM at TEAD3.

For the compound `C=CC(=O)NCc1cc(-c2ccc(OC(F)(F)F)nc2)c2ncoc2c1CO` [Compound 114, N-((7-(Hydroxymethyl)-4-(6-(trifluoromethoxy)pyridin-3-yl)benzo[d]oxazol-6-yl)methyl)acrylamide], the IC50 was found to be 350 nM at TEAD2, 480 nM on TEAD1, 740 nM at TEAD4 and 700 nM at TEAD3.

For the compound `C=CC(=O)NCc1cc(-c2ccc(OC(F)(F)F)cc2)c2nccnc2c1[C@H](C)O` (single isomer, unassigned) [Compound 83], the IC50 turned out to be 6 nM at TEAD2, 44 nM on TEAD1, 95 nM on TEAD4 and 190 nM on TEAD3.

Take `C=CC(=O)N(C)Cc1cc(-c2ccc(OC(F)(F)F)cc2)c2nccn2c1CO` [Compound 36, N-[[5-(hydroxymethyl)-8-[4-(trifluoromethoxy)phenyl]imidazo[1,2-a]pyridin-6-yl]methyl]-N-methyl-prop-2-enamide]: the concentration for half-maximal inhibition (IC50) on TEAD2 was 100 nM; at TEAD1, 44 nM; on TEAD4, 37 nM; at TEAD3, 89 nM.

As for `C=CC(=O)N(C)Cc1cc(-c2ccc(OC(F)(F)F)cc2)c2c(c1[C@H](O)CO)CCO2` (single isomer, unassigned) [Compound 55], the 50% inhibitory concentration (IC50) against TEAD2 was 4.4 nM; at TEAD1, 20 nM; on TEAD4, 7.2 nM; on TEAD3 it was 240 nM.

As for `C=CC(=O)NCc1nc(N2CCC(OC(F)(F)F)CC2)c2ncn(C)c2n1` [Compound 131, N-((9-Methyl-6-(4-(trifluoromethoxy)piperidin-1-yl)-9H-purin-2-yl)methyl)acrylamide], the concentration for half-maximal inhibition (IC50) against TEAD2 stood at 1600 nM; at TEAD1, 400 nM; at TEAD4, 81 nM; on TEAD3, 1200 nM.

For `C=C(F)C(=O)N1CC(c2nc(-c3ccc(OC(F)(F)F)cc3)c3ncn(C(F)F)c3n2)C1` [Compound 132, 1-(3-(9-(Difluoromethyl)-6-(4-(trifluoromethoxy)phenyl)-9H-purin-2-yl)azetidin-1-yl)-2-fluoroprop-2-en-1-one], the 50% inhibitory concentration (IC50) is 150 nM on TEAD2, 6.9 nM on TEAD1, 24 nM at TEAD4 and 100 nM at TEAD3.

On to `C=CC(=O)NCc1cc(-c2ccc(OC(F)(F)F)cc2)c2ncn(C)c2c1[C@H](C)O` (single isomer, unassigned) [Compound 139], for which the IC50 against TEAD2 was 6.8 nM; on TEAD1 it was 160 nM; on TEAD4 it was 100 nM; on TEAD3, 380 nM.

As for `C=C(F)C(=O)N1CC(c2cc(-c3ccc(OC(F)(F)F)cc3)c3ncn(C)c3c2CO)C1` [Compound 59, 2-fluoro-1-[3-[4-(hydroxymethyl)-3-methyl-7-[4-(trifluoromethoxy)phenyl]benzimidazol-5-yl]azetidin-1-yl]prop-2-en-1-one], the IC50 was found to be 37 nM against TEAD2, 18 nM at TEAD1, 81 nM on TEAD4 and 380 nM at TEAD3.

Turning to `C=CC(=O)NCc1nc(N2CCC(C(F)(F)F)CC2)c2ncn(C)c2n1` [Compound 130, N-((9-Methyl-6-(4-(trifluoromethyl)piperidin-1-yl)-9H-purin-2-yl)methyl)acrylamide], the IC50 at TEAD2 is 1000 nM; at TEAD1, 410 nM; at TEAD4, 140 nM; at TEAD3, 440 nM.

For `CN(Cc1cc(-c2ccc(OC(F)(F)F)cc2)c2ncn(C)c2c1CO)C(=O)/C=C/CO` [Compound 64, (E)-4-hydroxy-N-[[4-(hydroxymethyl)-3-methyl-7-[4-(trifluoromethoxy)phenyl]benzimidazol-5-yl]methyl]-N-methyl-but-2-enamide], the IC50 against TEAD2 was 510 nM; at TEAD1 it was 270 nM; on TEAD4, 44 nM; at TEAD3, 700 nM.

For `C=CC(=O)NCc1nc(C23CC(C(C)C)(C2)C3)c2ncsc2n1` [Compound 102, N-((7-(3-Isopropylbicyclo[1.1.1]pentan-1-yl)thiazolo[5,4-d]pyrimidin-5-yl)methyl)acrylamide], the half-inhibitory concentration (IC50) is 310 nM against TEAD2, 120 nM on TEAD1, 23 nM on TEAD4 and 110 nM on TEAD3.

For the compound `C=CC(=O)N(CC)Cc1nc(-c2ccc(OC(F)(F)F)cc2)c2ncsc2n1` [Compound 98, N-Ethyl-N-((7-(4-(trifluoromethoxy)phenyl)thiazolo[5,4-d]pyrimidin-5-yl)methyl)acrylamide], the 50% inhibitory concentration (IC50) came to 140 nM against TEAD2, 710 nM at TEAD1, 48 nM on TEAD4 and 680 nM on TEAD3.

With `C=CC(=O)NCc1cc(-c2ccc(OC(F)(F)F)cc2)c2ncccc2c1[C@H](O)CO` (single isomer, unassigned) [Compound 47], the IC50 on TEAD2 amounted to 11.5 nM; on TEAD1, 22 nM; at TEAD4, 135 nM; on TEAD3 it was 175 nM.

These data come from patent publication US12275745B2, “Therapeutic compounds and methods of use” (Genentech, Inc., priority 2021, dated 2025).
